From BindingDB's records for doi:10.1021/jm00021a005 (University of Wisconsin-Madison, 1995) come the findings set out here.

The target in this test is Peptidyl-prolyl cis-trans isomerase A, cyclophilin A (Homo sapiens) (UniProt P62937). The experiment in a line: The compound was tested for inhibition of […] isomerase (PPIase).
Peptidyl-prolyl cis-trans isomerase A, cyclophilin A (Homo sapiens), sequence (P62937 whole entry, looked up): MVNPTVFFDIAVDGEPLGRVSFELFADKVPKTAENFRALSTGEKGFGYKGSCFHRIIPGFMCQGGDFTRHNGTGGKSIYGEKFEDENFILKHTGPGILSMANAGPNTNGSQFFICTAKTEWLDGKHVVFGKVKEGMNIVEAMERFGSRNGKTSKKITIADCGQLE

By Ki is commonly meant the dissociation constant of the complex between target and ligand, obtained from inhibition or displacement. `C/C=C/CC(C)[C@@H](O)[C@H]1C(=O)N[C@@H](CC)C(=O)N(C)CC(=O)N(C)[C@@H](CC(C)C)C(=O)N[C@@H](C(C)C)C(=O)N(C)[C@H](CC(C)C)C(=O)N[C@H](Cc2ccccc2)C(=O)N[C@@H](CO)C(=O)N(C)[C@H](CC(C)C)C(=O)N(C)[C@@H](CC(C)C)C(=O)N(C)[C@H](C(C)C)C(=O)N1C` (stereo partly drawn) [15-Benzyl-30-ethyl-12-hydroxymethyl-33-(1-hydroxy-2-methyl-hex-4-enyl)-6,9,18,24-tetraisobutyl-3,21-diisopropyl-1,4,7,10,19,25,28-heptamethyl-1,4,7,10,13,16,19,22,25,28,31undecaaza-cyclotritriacontan-2,5,8,11,14,17,20,23,26,29,32-undecaone] gave a Ki of 6 nM. As for `C/C=C/CC(C)[C@@H](O)[C@H]1C(=O)N[C@@H](CC)C(=O)N(C)CC(=O)N(C)[C@@H](CC(C)C)C(=O)N[C@@H](C(C)C)C(=O)N(C)[C@H](CC(C)C)C(=O)N[C@H](Cc2ccccc2)C(=O)N[C@H](C)C(=O)N(C)[C@H](CC(C)C)C(=O)N(C)[C@@H](CC(C)C)C(=O)N(C)[C@H](C(C)C)C(=O)N1C` (stereo partly drawn) [15-Benzyl-30-ethyl-33-(1-hydroxy-2-methyl-hex-4-enyl)-6,9,18,24-tetraisobutyl-3,21-diisopropyl-1,4,7,10,12,19,25,28-octamethyl-1,4,7,10,13,16,19,22,25,28,31undecaaza-cyclotritriacontan-2,5,8,11,14,17,20,23,26,29,32-undecaone], the figure is 33 nM; as for `C/C=C/CC(C)C(O)[C@H]1C(=O)N[C@@H](CC)C(=O)N(C)[C@H](C)C(=O)N(C)[C@@H](CC(C)C)C(=O)N[C@@H](C(C)C)C(=O)N(C)[C@H](CC(C)C)C(=O)N[C@H](Cc2ccccc2)C(=O)N[C@H](C)C(=O)N(C)[C@H](CC(C)C)C(=O)N(C)[C@@H](CC(C)C)C(=O)N(C)[C@H](C(C)C)C(=O)N1C` (stereo partly drawn) [15-Benzyl-30-ethyl-33-(1-hydroxy-2-methyl-hex-4-enyl)-6,9,18,24-tetraisobutyl-3,21-diisopropyl-1,4,7,10,12,19,25,27,28-nonamethyl-1,4,7,10,13,16,19,22,25,28,31undecaaza-cyclotritriacontan-2,5,8,11,14,17,20,23,26,29,32-undecaone], 6 nM.
